Test results as given in US20050261236A1, “Agonists of A2A adenosine receptors for treatment of diabetic nephropathy” (priority 2004, published 2005).

Key:
[1] = test system: Nitric Oxide End Products (Nitrite and Nitrate) (NOX); assay: Urinary nitric oxide end products (nitrite and nitrate) (NOX) in diabetes; type: in vivo; conditions: diabetic rats, 6 week after STZ induction, FIG. 4, in words
Method: Rats were administered ATL146e (10 ng/kg/min) or vehicle by osmotic minipumps prior to the induction of diabetes by STZ (50 mg/kg, iv) and followed for up to 6 week. Table 1, below illustrates the effect of STZ on blood glucose, body weight, systolic blood pressure and 24 hours of urine volume as well as the effect of ATL146e. As shown to the right, NOX (as an indicator of endothelial function in the kidney) was decreased in diabetes group at 6 week after STZ induction of diabetes. The decreased in NOX was improved by ATL146e. […] Results are illustrated in FIG. 4.

[2] = test system: STZ (45 mg/kg) Diabetic Model; assay: Blood glucose, body weight, systolic blood pressure and urine volume in STZ diabetic model; type: in vivo, rats; conditions: for 24 h Urine Volume / Body Weight / Systolic Blood Pressure: Diabetes + ATL146e (10 ng/kg/min); for 24 h Urine Volume / Body Weight / Systolic Blood Pressure / Blood Glucose: STZ rats; for Blood Glucose: Diabetes + ATL146e (10 ng/kg/min, osmotic minipump)
Method: Effects of ATL146e on Blood Glucose, Body Weight, Systolic Blood Pressure and Urine Volume in STZ (45 mg/kg) Diabetic Model (n=5 Each Group) Rats were administered ATL146e (10 ng/kg/min) or vehicle by osmotic minipumps prior to the induction of diabetes by STZ […] and followed for up to 6 week. Table 1, below illustrates the effect of STZ on blood glucose, body weight, systolic blood pressure and 24 hours of urine volume as well as the effect of ATL146e. Table 1 summarizes the data for blood glucose (BG), body weight (BW), systolic blood pressure (SBP) and 24 hour urinary volume (UV). Basal BG level was 74±4 mg/dl and increased to 325±4 mg/dl 48 hours after STZ-induction of diabetes and continued to be elevated at 3 and 6 weeks of the study period. Normal rats gained weight as expected. […] There were no significant changes in SBP, 3 weeks after STZ-induction of diabetes between all groups.

TNF-alpha = assay: Urinary and plasma TNF-alpha in diabetes; type: in vivo, rats
Method: (§1) Rats were administered ATL146e (10 ng/kg/min) or vehicle by osmotic minipumps prior to the induction of diabetes by STZ (50 mg/kg, iv) and followed for up to 6 week. Table 1, below illustrates the effect of STZ on blood glucose, body weight, systolic blood pressure and 24 hours of urine volume as well as the effect of ATL146e. Urinary TNF-alpha was not different between groups before STZ treatment. […] Results are illustrated in FIG. 3.

fibronectin mRNA = assay: Fibronectin mRNA (polymerase chain reaction) after induction of diabetes; type: in vivo; conditions: RNA from diabetic rats, PCR, FIG. 5, in words
Method: RNA from diabetic rats were extracted and subjected to polymerase chain reaction to examine profibrogenic factors. […] Trichrome stain of kidneys from diabetic rats treated with vehicle for 6 weeks (Panels a, c) or ATL146e-10 ng/kg/min (Panels b, d). Magnification ×400. Each panel represents a photograph from a different test animal. Results are illustrated in FIG. 5.

diabetic rats = assay: Plasma creatinine in diabetes; type: in vivo; conditions: diabetic rats versus vehicle, FIG. 2, in words
Method: as §1, with “ATL146e.” for “ATL146e. Urinary TNF-alpha was not different between groups before STZ treatment.”, “2.” for “3.”

[3] = test system: STZ-induced diabetic animal model; assay: Urinary albumin excretion in diabetes; type: in vivo; conditions: STZ diabetic rats, 24 hour urine, FIG. 1, in words
Method: Rats were administered ATL146e (10 ng/kg/min) or vehicle by osmotic minipumps prior to the induction of diabetes by STZ (50 mg/kg, iv) and followed for up to 6 week. Table 1, below illustrates the effect of STZ on blood glucose, body weight, systolic blood pressure and 24 hours of urine volume as well as the effect of ATL146e. Urine collections were obtained for 24 hours for measurement of urinary albumin excretion (UAE). UAE rate was 135±35 μg/24 hours at baseline and increased to 1265±500 μg/24 hours and 2921±335 μg/24 hours (P<0.0001) at week 2 and 6, respectively in the diabetic group. […] Results are illustrated in FIG. 1.

CCNC(=O)C1OC(n2cnc3c(N)nc(C#CCC4CCC(C(=O)OC)CC4)nc32)C(O)C1O (stereo not drawn) [ATL146e, 4-{3-[6-Amino-9-(5-ethylcarbamoyl-3,4-dihydroxytetrahydro-furan-2-yl)-9H-purin-2-yl]-prop-2-ynyl}cyclo-hexanecarboxylic acid methyl ester]
Effect on decreased urinary NOX [1]: restored to normal levels
24 h Urine Volume ([2]; Baseline): 15 ± 2 mL
Body Weight ([2]; Baseline): 250 ± 13 g
24 h Urine Volume ([2]; Week 2): 53 ± 13 mL
Body Weight ([2]; Week 3): 323 ± 13 g
Systolic Blood Pressure ([2]; Week 3): 123 ± 4 mmHg
24 h Urine Volume ([2]; Week 4): 57 ± 15 mL
24 h Urine Volume ([2]; Week 6): 59 ± 23 mL
Body Weight ([2]; Week 6): 358 ± 24 g
Systolic Blood Pressure ([2]; Week 6): 114 ± 2 mmHg
Blood Glucose ([2]; Baseline): 75 ± 5 mg/dL
Blood Glucose ([2]; Week 1): 311 ± 37 mg/dL
Blood Glucose ([2]; Week 6): 359 ± 23 mg/dL
Effect on the increase in SBP observed in diabetes with no treatment ([2]; STZ diabetic rats, after 6 weeks, in words): restored the increase in SBP
24 hour urinary volume (UV) ([2]; diabetes+ATL146e group after STZ-induction, throughout study period, in words): increased significantly
Increase in BW ([2]; diabetes+ATL146e rats versus normal rats of matched age, in words): modest and significant from normal rats
Plasma TNF-alpha (TNF-alpha; all groups, any point of the study periods (data not shown)): not detectable
Effect on the increase in TNF-alpha (printed: Plasma TNF-alpha) (TNF-alpha; diabetic rats, 6 week after diabetes, FIG. 3, in words): significantly (P<0.05) reduced the increase in Plasma TNF-alpha
Effect on the increase in fibronectin mRNA induced by diabetes (fibronectin mRNA): reduced to levels near control
Effect on the increase in plasma creatinine (diabetic rats): significantly restored to normal
Effect on urinary albumin excretion (UAE) [3]: minimizes the increase of UAE
